Values of other authors in patent US12544371B2, “Methods and compositions for treating acute lung injury and acute respiratory distress syndrome” (CalciMedica, Inc., priority 2020, dated 2026).
Entries after “also recorded” stand apart in the source; their conditions may differ.

Legend:
[1] = cited from earlier work
[2] = Gandhirajan et al. 2013; cited from earlier work
[3] = mice, cited from earlier work

In the case of Cc1nnsc1C(=O)Nc1ccc(-n2nc(C(F)(F)F)cc2C(F)(F)F)cc1 [BTP2, N-(4-(3,5-bis(trifluoromethyl)-1H-pyrazol-1-yl)phenyl)-4-methyl-1,2,3-thiadiazole-5-carboxamide], the “endothelial lung dysfunction and lung inflammation” value ([1]; rat ventilator-induced lung injury) is listed as “suppress”, the ventilator-induced lung injury ([1]; rats) is listed as “attenuate” and the “infiltration of neutrophils into inflamed lung tissue” value [2] is listed as “reduced”. For the same compound, the “inflammatory cytokines associated with lung inflammation” value [2] was “down-regulated”, the “vascular permeability in lungs” value [2] was “decreased” and the “endothelial cell Ca2+ flux” value ([3]; delivered 2 hours after systemic endotoxin) was “striking reduction”. The “measures of lung injury (endotoxin / lipopolysaccharide-induced)” value [3] was “sharp decrease; also recorded: attenuate”.
